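Five compound concentrations were applied to cells in 96-well plates for 48 hours; endpoints were derived by simple linear interpolation of the resulting dose-response curve. Here, GI50 denotes the concentration required for 50% inhibition of growth.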 Calls of active or inactive are those of the source. Cut-off read from the data, not from the text of the source: active = GI50 up to about 1.1 µM and inactive = higher.
Key:
Test in all cases: NCI anticancer screen, dose series, 48 h
BT-549 = tested on: BT-549
COLO 205 = tested on: COLO 205
HCT-116 = tested on: HCT-116
HOP-62 = tested on: HOP-62
KM12 = tested on: KM12
M14 = tested on: M14
MDA-MB-435 = tested on: MDA-MB-435
NCI-H226 = tested on: NCI-H226
NCI-H522 = tested on: NCI-H522
OVCAR-8 = tested on: OVCAR-8
SF-295 = tested on: SF-295
SF-539 = tested on: SF-539
SK-MEL-2 = tested on: SK-MEL-2
SK-MEL-5 = tested on: SK-MEL-5
SNB-19 = tested on: SNB-19
SR = tested on: SR
SW-620 = tested on: SW-620
T47D = tested on: T47D
U-251 = tested on: U-251
UACC-257 = tested on: UACC-257

Cn1c2ccc(C3=NCCN3)cc2c2cc(C3=NCCN3)ccc21
GI50 (BT-549): > 100 µM (inactive)
GI50 (COLO 205): 0.724 µM (active)
GI50 (HCT-116): 21.9 µM (inactive)
GI50 (HOP-62): 15.3 µM (inactive)
GI50 (KM12): 1.56 µM (inactive)
GI50 (M14): 48.6 µM (inactive)
GI50 (MDA-MB-435): 61.8 µM (inactive)
GI50 (NCI-H226): 30.1 µM (inactive)
GI50 (NCI-H522): 0.0775 µM (active)
GI50 (OVCAR-8): 28.9 µM (inactive)
GI50 (SF-295): 42.8 µM (inactive)
GI50 (SF-539): 29.4 µM (inactive)
GI50 (SK-MEL-2): 33.5 µM (inactive)
GI50 (SK-MEL-5): 31.3 µM (inactive)
GI50 (SNB-19): 42.8 µM (inactive)
GI50 (SR): 18.2 µM (inactive)
GI50 (SW-620): 17.6 µM (inactive)
GI50 (T47D): 7.89 µM (inactive)
GI50 (U-251): 14.9 µM (inactive)
GI50 (UACC-257): 43.8 µM (inactive)

O=P(O)(NCCCl)NCCCl [PALIFOSFAMIDE]
GI50 (BT-549): > 100 µM (inactive)
GI50 (COLO 205): > 100 µM (inactive)
GI50 (HCT-116): > 100 µM (inactive)
GI50 (HOP-62): 65.6 µM (inactive)
GI50 (KM12): > 10 µM (inactive)
GI50 (M14): > 100 µM (inactive)
GI50 (MDA-MB-435): > 100 µM (inactive)
GI50 (NCI-H226): > 100 µM (inactive)
GI50 (NCI-H522): > 100 µM (inactive)
GI50 (OVCAR-8): > 10 µM (inactive)
GI50 (SF-295): 54.1 µM (inactive)
GI50 (SF-539): 52.5 µM (inactive)
GI50 (SK-MEL-2): > 100 µM (inactive)
GI50 (SK-MEL-5): > 10 µM (inactive)
GI50 (SNB-19): > 10 µM (inactive)
GI50 (SR): 4.95 µM (inactive)
GI50 (SW-620): > 10 µM (inactive)
GI50 (T47D): > 100 µM (inactive)
GI50 (U-251): > 10 µM (inactive)
GI50 (UACC-257): > 10 µM (inactive)
